Reference: PMC10692362 (Acta Pharmaceutica Sinica. B, 2023)
Where two headings read alike, the source gives them in different places. Peptide text beside a SMILES is read from it. * marks the point of attachment. Cbz = O=C(OCc1ccccc1)*

Assays:
human ERα LBD = target: T1, human ERα LBD (Homo sapiens, UniProt P03372); assay: Competitive fluorescence polarization binding assay, ERα; conditions: for RBA ERα: IC50 estradiol/IC50 compound × 100, estradiol = 100%; for α/β ratio: ratio of RBA ERα to RBA ERβ
T1 sequence (P03372 311-547 limits assumed): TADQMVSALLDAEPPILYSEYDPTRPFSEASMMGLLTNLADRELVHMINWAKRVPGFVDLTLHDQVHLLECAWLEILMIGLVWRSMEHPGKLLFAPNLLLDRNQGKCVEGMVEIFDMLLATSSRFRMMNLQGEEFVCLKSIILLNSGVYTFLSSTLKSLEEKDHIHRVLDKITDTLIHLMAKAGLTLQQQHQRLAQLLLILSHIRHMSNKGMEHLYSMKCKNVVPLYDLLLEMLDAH

human ERβ LBD = human ERβ LBD (Homo sapiens, UniProt Q92731); assay: Competitive fluorescence polarization binding assay, ERβ; conditions: for RBA ERβ: IC50 estradiol/IC50 compound × 100, estradiol = 100%
Sequence of human ERβ LBD (Q92731 264-498 limits assumed): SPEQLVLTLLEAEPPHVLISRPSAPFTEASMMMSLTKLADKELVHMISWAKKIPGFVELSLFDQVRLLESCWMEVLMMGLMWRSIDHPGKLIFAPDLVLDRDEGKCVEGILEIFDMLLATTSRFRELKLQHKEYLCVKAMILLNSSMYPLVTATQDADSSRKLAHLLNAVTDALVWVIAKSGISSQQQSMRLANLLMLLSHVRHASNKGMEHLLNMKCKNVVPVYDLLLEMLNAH

MCF-7 cells = assay: Cell viability assay; assay type: cell-based, human; conditions: Homo sapiens, MCF7, 72 h, read-out: MCF-7 IC50
T-47D cells = assay: Cell viability assay; assay type: cell-based, human; conditions: Homo sapiens, T47D, 72 h, read-out: T-47D IC50
T-47D^D538G cells = assay: Cell viability assay; assay type: cell-based, human; conditions: Homo sapiens, 72 h, read-out: T-47D^D538G IC50
T-47D^Y537S cells = assay: Cell viability assay; assay type: cell-based, human; conditions: Homo sapiens, 72 h, read-out: T-47D^Y537S IC50
LCC-2 cells = assay: Cell viability assay on tamoxifen-resistant LCC-2 cells; assay type: cell-based; conditions: Homo sapiens, LCC2, read-out: LCC-2 IC50
MCF-10A cells = assay type: cell-based, human; conditions: TI = IC50 MCF-10A / IC50 MCF-7
ERα [1] = target: T2, ERα (Homo sapiens, UniProt P03372); assay: cell-based; assay type: cell-based; conditions: for Agonist mode ERα Eff (%E2): control as 0%, 10 nmol/L E2 as 100%
T2 sequence (P03372 1-595): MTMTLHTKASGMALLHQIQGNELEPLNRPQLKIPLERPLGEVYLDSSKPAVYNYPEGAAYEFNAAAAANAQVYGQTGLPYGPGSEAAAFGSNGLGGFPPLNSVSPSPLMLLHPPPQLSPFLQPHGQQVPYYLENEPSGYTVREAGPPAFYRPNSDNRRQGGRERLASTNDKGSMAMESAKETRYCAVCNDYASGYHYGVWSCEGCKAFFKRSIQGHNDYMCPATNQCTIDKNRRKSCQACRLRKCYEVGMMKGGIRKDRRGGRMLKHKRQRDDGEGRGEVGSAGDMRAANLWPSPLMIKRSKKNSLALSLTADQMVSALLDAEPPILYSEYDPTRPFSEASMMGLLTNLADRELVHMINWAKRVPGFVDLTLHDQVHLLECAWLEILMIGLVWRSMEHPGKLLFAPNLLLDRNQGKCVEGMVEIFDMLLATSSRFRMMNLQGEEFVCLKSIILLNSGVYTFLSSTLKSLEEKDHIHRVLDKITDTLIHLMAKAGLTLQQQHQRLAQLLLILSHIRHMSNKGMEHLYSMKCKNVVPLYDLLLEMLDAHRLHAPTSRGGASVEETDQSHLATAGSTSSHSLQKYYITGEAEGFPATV

ERβ = ERβ (Homo sapiens, UniProt Q92731); assay: ER transcriptional activity; assay type: cell-based; conditions: for Agonist mode ERβ Eff (%E2): control as 0%, 10 nmol/L E2 as 100%; for Antagonist mode ERβ Eff (%E2): with 10 nmol/L 17β-estradiol
Sequence of ERβ (Q92731 whole entry): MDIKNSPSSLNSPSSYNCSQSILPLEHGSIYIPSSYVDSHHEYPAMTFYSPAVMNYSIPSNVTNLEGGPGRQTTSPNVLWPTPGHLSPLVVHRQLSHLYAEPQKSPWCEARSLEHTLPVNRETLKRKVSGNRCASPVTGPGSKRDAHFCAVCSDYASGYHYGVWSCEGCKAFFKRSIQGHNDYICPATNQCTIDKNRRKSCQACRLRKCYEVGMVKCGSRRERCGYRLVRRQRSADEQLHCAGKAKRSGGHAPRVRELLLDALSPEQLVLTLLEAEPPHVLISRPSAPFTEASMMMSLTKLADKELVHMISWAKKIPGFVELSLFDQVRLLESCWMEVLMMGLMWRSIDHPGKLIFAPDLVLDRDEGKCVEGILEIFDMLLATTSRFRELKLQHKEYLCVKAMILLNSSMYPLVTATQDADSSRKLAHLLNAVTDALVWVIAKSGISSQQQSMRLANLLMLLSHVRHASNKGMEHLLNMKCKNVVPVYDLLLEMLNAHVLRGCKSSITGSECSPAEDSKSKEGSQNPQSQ

ERα [2] = target: T2, ERα; assay: Immunoblot analysis of ERα degradation in MCF-7 cells; assay type: cell-based; conditions: MCF-7 cells; for ERα degradation (immunoblot): 1 or 5 μmol/L
ERα [3] = assay: Immunoblot analysis of ERα degradation across ERα^WT and ERα^MUT BC cell lines; assay type: cell-based, human; conditions: 10 μmol/L MG-132 alone

In the case of `CCN(c1ccc(O)cc1)S(=O)(=O)C1CC2OC1C(c1ccc(O)cc1)=C2c1ccc(NC(=O)C=C(C)C)cc1` (stereo not drawn) [Compound 29i, N-(4-(5-(N-Ethyl-N-(4-hydroxyphenyl)sulfamoyl)-3-(4-hydroxyphenyl)-7-oxabicyclo[2.2.1]hept-2-en-2-yl)phenyl)-3-methylbut-2-enamide], the Ki (human ERα LBD) is reported as 90 pM, the “RBA ERα” value (human ERα LBD) is reported as 29.85 ± 1.09% and the α/β ratio (human ERα LBD) is reported as 5.83. The Ki (human ERβ LBD) was 0.0013 µM, the “RBA ERβ” value (human ERβ LBD) was 5.12 ± 0.39% and the IC50 (MCF-7 cells) was 0.071 ± 0.027 µM. The IC50 (T-47D cells) was 3.49 ± 0.06 µM, the IC50 (T-47D^D538G cells) was 4.25 ± 0.19 µM and the IC50 (T-47D^Y537S cells) was 1.89 ± 0.17 µM. The IC50 (LCC-2 cells) was 4.07 ± 0.13 µM, the “TI (therapeutic index)” value (MCF-10A cells) was 122.82 and the IC50 (ERα [1]) was 0.066 µM. For the same molecule, the “Agonist mode ERα Eff (%E2)” value (ERα [1]) was 15 ± 2 %E2, the “Antagonist mode ERα Eff (%E2)” value (ERα [1]; with 10 nmol/L 17β-estradiol) was 62 ± 5 %E2 and the IC50 (ERβ) was 1.02 µM. For the same molecule, the “Agonist mode ERβ Eff (%E2)” value (ERβ) was 34 ± 2 %E2, the “Antagonist mode ERβ Eff (%E2)” value (ERβ) was 78 ± 2 %E2 and the “ERα degradation (immunoblot) at 1 μmol/L” value (ERα [2]) was “efficient ability to degrade ERα”. For the same molecule, the “ERα degradation (immunoblot)” value (ERα [2]) was “effective in inducing ERα degradation”.

`COc1ccc(N(CC(F)(F)F)S(=O)(=O)C2CC3OC2C(c2ccc(O)cc2)=C3c2ccc(NC(=O)C=C(C)C)cc2)cc1` (stereo not drawn) [Compound 29f, N-(4-(3-(4-Hydroxyphenyl)-5-(N-(4-methoxyphenyl)-N-(2,2,2-trifluoroethyl)sulfamoyl)-7-oxabicyclo[2.2.1]hept-2-en-2-yl)phenyl)-3-methylbut-2-enamide] was tested, and the “RBA ERα” value (human ERα LBD) was 14.48 ± 0.65%, the α/β ratio (human ERα LBD) was 8.83 and the Ki (human ERα LBD; read-out: Ki ERα) was 190 pM. For the same molecule, the “RBA ERβ” value (human ERβ LBD) was 1.64 ± 0.45%, the Ki (human ERβ LBD; read-out: Ki ERβ) was 0.00407 µM and the IC50 (MCF-7 cells) was 0.094 ± 0.001 µM. For the same molecule, the IC50 (T-47D cells) was 8.58 ± 0.36 µM, the IC50 (T-47D^D538G cells) was 8.53 ± 0.47 µM and the IC50 (T-47D^Y537S cells) was > 31 µM. The IC50 (LCC-2 cells) was 15.1 ± 1.37 µM, the “TI (therapeutic index)” value (MCF-10A cells) was 54.89 and the “Agonist mode ERα Eff (%E2)” value (ERα [1]) was 65 ± 5 %E2. For the same molecule, the EC50 (ERα [1]; read-out: Agonist mode ERα EC50, HEK-293T luciferase) was 4.91 µM, the IC50 (ERα [1]; read-out: Antagonist mode ERα IC50, with 10 nmol/L 17β-estradiol) was 0.21 µM and the “Antagonist mode ERα Eff (%E2)” value (ERα [1]; with 10 nmol/L 17β-estradiol) was 35 ± 2 %E2. The “Agonist mode ERβ Eff (%E2)” value (ERβ) was 9 ± 2 %E2, the “Antagonist mode ERβ Eff (%E2)” value (ERβ) was 13 ± 1 %E2 and the “ERα degradation (immunoblot) at 1 μmol/L” value (ERα [2]) was “efficient ability to degrade ERα”. For the same molecule, the “ERα degradation (immunoblot)” value (ERα [2]) was “effective in inducing ERα degradation”.

In the case of `CC(C)C[C@@H](C=O)NC(=O)[C@H](CC(C)C)NC(=O)[C@H](CC(C)C)NC(=O)OCc1ccccc1` [MG-132, reference compound] (Cbz-Leu-Leu-Leu-aldehyde), the “Effect on ERα degradation, alone” value (ERα [3]) is reported as “no effect on ERα degradation”.
